Results from the OPERA property sets (Mansouri et al. 2018).

Details: not given

First: CC[C@@](C)(O)C(=O)O
Second: CCCC#CCCCC(=O)O
The melting point of the first is higher: 74 °C for the first, -3 °C for the second.

First: NS(=O)(=O)c1ccc(S(=O)(=O)CCCO)c([N+](=O)[O-])c1
Second: O=[N+]([O-])c1cccc2ccccc12
The melting point of the first is higher: 169 °C for the first, 61 °C for the second.

First: Cc1c[nH]cn1
Second: CC(=O)c1c(C)c[nH]c1C
The melting point of the first is lower: 56 °C for the first, 138 °C for the second.

Going from `OC[C@H]1OC(O)[C@H](O)[C@@H](O)[C@@H]1O` (stereo partly specified) to `Nc1ncnc2c1ncn2[C@H]1CC[C@@H](CO)O1`, the melting point rises from 133 °C to 185 °C.

First: OCc1ccc(Cl)cc1
Second: COP(=S)(OC)SCC(=O)N(c1ccc(Cl)cc1)C(C)C
The melting point of the first is higher: 75 °C for the first, 51 °C for the second.

Compared with `O=c1[nH]c2c(c(=O)n1C1CCCCC1)CCC2`, `Nc1c2c(nc3ccccc13)CCCC2` is lower in melting point: 316 °C for the first, 184 °C for the second.

Compared with `COc1cc(OC)nc(NC(=O)NS(=O)(=O)c2ncccc2C(F)(F)F)n1`, `N#Cc1ccccc1C(F)(F)F` is lower in melting point: 180 °C for the first, 18 °C for the second.

First: CC[C@H]1O[C@]2(CC[C@@H]1C)C[C@@H]1C[C@@H](CC=C(C)C[C@@H](C)C=CC=C3CO[C@@H]4[C@H](O)C(C)=C[C@@H](C(=O)O1)[C@]34O)O2
Second: Cc1ccc(C(C)C)cc2c(C)ccc1-2
The melting point of the first is higher: 214 °C for the first, 31.5 °C for the second.

Going from `O=c1n(-c2ccccc2)c(=O)n(-c2ccccc2)c(=O)n1-c1ccccc1` to `c1ccc(CNc2ccccc2)cc1`, the melting point falls from 285 °C to 37.5 °C.

Compared with `CCCCCCOc1ccc(O)cc1`, `O=C(O)c1ccc(O)cc1` is higher in melting point: 46 °C for the first, 214 °C for the second.

First: CCC(C)c1cc([N+](=O)[O-])cc([N+](=O)[O-])c1OC(=O)OC(C)C (stereo unspecified)
Second: CNC(=O)Oc1cc(C)c(SC)c(C)c1
The melting point of the first is lower: 61 °C for the first, 120 °C for the second.

Compared with `CCOCOC(=O)c1ccccc1Nc1c(Cl)ccc(C)c1Cl`, `Cc1cccc2c1ccc1ccccc12` is higher in melting point: 73.5 °C for the first, 123 °C for the second.

First: OCC(O)CI (stereo unspecified)
Second: CC(O)CN(C)C (stereo unspecified)
The melting point of the first is lower: 48.5 °C for the first, 124 °C for the second.

First: NCCc1ccccc1
Second: c1ccc(Cc2cccnc2)cc1
The melting point of the first is lower: -60 °C for the first, 34 °C for the second.

Compared with `NNC(=O)c1ccc(Br)cc1`, `CC(=O)Nc1ccc(C)cc1C` is lower in melting point: 166 °C for the first, 129 °C for the second.

Compared with `FC(F)(F)C(F)(Cl)C(Cl)(Cl)C(F)(F)F` (stereo unspecified), `COc1cc(Cl)c(OC)cc1Cl` is higher in melting point: 4 °C for the first, 134 °C for the second.

Going from `CCCCC(C)C` to `CC(C)NCC(O)COc1cccc2ccccc12.Cl` (stereo unspecified), the melting point rises from -118 °C to 164 °C.

Compared with `O=C(O)C(Cc1cc(I)c(O)c(I)c1)c1ccccc1` (stereo unspecified), `c1ccn2cccc2c1` is lower in melting point: 164 °C for the first, 75 °C for the second.

Going from `COP(=S)(OC)Oc1ccc(SC)c(C)c1` to `Cc1cc(NS(=O)(=O)c2ccc(N)cc2)sn1`, the melting point rises from 7.5 °C to 192 °C.

Going from `COC(=O)/C=C/C(C)=C\C=C\C(C)=C\C=C\C=C(C)\C=C\C=C(C)\C=C\C(=O)O` to `COC(=O)CCl`, the melting point falls from 198 °C to -32.1 °C.

First: C=CCCC(=O)O
Second: CC(C)(C)NC[C@H](O)COc1nsnc1N1CCOCC1
The melting point of the first is lower: -22.5 °C for the first, 202 °C for the second.

Compound `CCCCCCCCCCCCCCCCCCCCCCC` has a melting point of 47.6 °C.

Going from `Cc1c[nH]cn1` to `CCOc1ccccc1N`, the boiling point falls from 263 °C to 232 °C.

First: OCc1ccc(Cl)cc1
Second: OCc1cccs1
The boiling point of the first is higher: 235 °C for the first, 207 °C for the second.

First: N#Cc1ccccc1C(F)(F)F
Second: CC(C)(C)C(=O)c1ccccc1
The boiling point of the first is lower: 205 °C for the first, 220 °C for the second.

Going from `NCCc1ccccc1` to `c1ccc(Cc2cccnc2)cc1`, the boiling point rises from 198 °C to 287 °C.

Going from `CCCC#CCCCC` to `CCCCC(C)C`, the boiling point falls from 152 °C to 90 °C.

First: CCC[C@H]1CCCCC1=O
Second: CC(C)C1=CC[C@H](C)CC1
The boiling point of the first is higher: 197 °C for the first, 168 °C for the second.

Going from `FC(F)(F)C(F)(Cl)C(Cl)(Cl)C(F)(F)F` (stereo unspecified) to `S=C(Cl)Cl`, the boiling point falls from 98 °C to 73 °C.

Compared with `O=[N+]([O-])c1cccc2ccccc12`, `c1ccc(CNc2ccccc2)cc1` is higher in boiling point: 304 °C for the first, 306 °C for the second.

Compared with `COc1cc(Cl)c(OC)cc1Cl`, `COC(=O)CCl` is lower in boiling point: 268 °C for the first, 130 °C for the second.

First: c1ccn2cccc2c1
Second: N#CCO
The boiling point of the first is higher: 205 °C for the first, 183 °C for the second.

First: C=CCCC(=O)O
Second: CC(O)CN(C)C (stereo unspecified)
The boiling point of the first is higher: 188 °C for the first, 124 °C for the second.

With `CCCCCCCCCCCCCCCCCCCCCCC` the boiling point was 380 °C.

Going from `OCc1ccc(-c2ccccc2)cc1` to `O=C(O)c1ccc(O)cc1`, the log10 Koc (L/kg) falls from 2.54 to 1.43.

`O=c1[nH]c2c(c(=O)n1C1CCCCC1)CCC2` and `CNC(=O)Oc1cc(C)c(SC)c(C)c1` are within 0.2 log units of each other in log10 Koc (L/kg): 2.14 for the first, 2.32 for the second.

`CCCCOCCOC(=O)C(C)Oc1ccc(Cl)cc1Cl` (stereo unspecified) and `COc1cc(Cl)c(OC)cc1Cl` are within 0.2 log units of each other in log10 Koc (L/kg): 3 for the first, 3.1 for the second.

In the case of `COP(=S)(OC)Oc1ccc(SC)c(C)c1`, the log10 Koc (L/kg) is reported as 3.18.

Compared with `O=c1[nH]c2c(c(=O)n1C1CCCCC1)CCC2`, `CNC(=O)Oc1cc(C)c(SC)c(C)c1` is higher in log10 vapour pressure (mmHg): -8.82 for the first, -6.57 for the second.

Going from `O=C(O)c1ccc(O)cc1` to `O=[N+]([O-])c1cccc2ccccc12`, the log10 vapour pressure (mmHg) rises from -6.72 to -3.32.

First: CCCCC(C)C
Second: CCCCCCCCCCCCCCCCCCCCCCC
The log10 vapour pressure (mmHg) of the first is higher: 1.82 for the first, -4.76 for the second.

First: COc1cc(Cl)c(OC)cc1Cl
Second: COP(=S)(OC)Oc1ccc(SC)c(C)c1
The log10 vapour pressure (mmHg) of the first is higher: -2.52 for the first, -4.98 for the second.

First: Cc1cccc2c1ccc1ccccc12
Second: COC(=O)CCl
The log10 vapour pressure (mmHg) of the first is lower: -4.82 for the first, 0.882 for the second.

Compared with `Clc1cc(Cl)c(-c2ccccc2)c(Cl)c1Cl`, `Cc1cccc2c1ccc1ccccc12` is lower in log10 Henry constant (atm·m³/mol): -3.68 for the first, -4.31 for the second.

Compared with `O=[N+]([O-])c1cccc2ccccc12`, `CNC(=O)Oc1cc(C)c(SC)c(C)c1` is lower in log10 Henry constant (atm·m³/mol): -5.75 for the first, -8.93 for the second.

`O=C(O)c1ccc(O)cc1` gave a log10 Koa of 8.08.

For `O=C(O)c1ccc(O)cc1`, the ready biodegradability was “readily biodegradable”.
In the case of `NCCc1ccccc1`, the ready biodegradability is reported as “readily biodegradable”.
For `Cc1ccc(C)c(C(C)c2ccccc2)c1` (stereo unspecified), the ready biodegradability was “not readily biodegradable”.
With `CC(C)(CO)COC(=O)C(C)(C)CO` the ready biodegradability was “not readily biodegradable”.
In the case of `COC(=O)CCl`, the ready biodegradability is reported as “readily biodegradable”.
For `CCCCCCCCCCCCCCCCCCCCCCC`, the ready biodegradability was “readily biodegradable”.

Going from `CCCCC(C)C` to `CCCCCCCCCCCCCCCCCCCCCCC`, the log10 biodegradation half-life (days) rises from 0.477 to 2.16.

Compound `Cc1cccc2c1ccc1ccccc12` has a log10 biodegradation half-life (days) of 1.36.

Same assay, conditions: […]

`C=C/C(C)=C\CC=C(C)C` gave a log10 OH rate constant (cm³/molecule/s) of -9.6.

Same assay, conditions: fish

Going from `Clc1cccc(-c2cccc(Cl)c2Cl)c1Cl` to `Cc1ccc(C)c(C(C)c2ccccc2)c1` (stereo unspecified), the log10 BCF falls from 4.23 to 2.86.

Compared with `ClC1C(Br)C(Br)C(Br)C(Br)C1Br` (stereo unspecified), `NCc1cccc(CN)c1` is lower in log10 BCF: 2.41 for the first, 0.43 for the second.

Going from `CC(C)(C)C(=O)O` to `COP(=S)(OC)Oc1ccc(SC)c(C)c1`, the log10 BCF rises from 0.36 to 2.52.

Work on `c1ccc(COCc2ccccc2)cc1` yielded a log10 BCF of 2.43.

Going from `Clc1cccc(-c2cccc(Cl)c2Cl)c1Cl` to `Cc1cccc2c1ccc1ccccc12`, the log10 biotransformation half-life (days) falls from 2 to 0.63.

`ClC1C(Br)C(Br)C(Br)C(Br)C1Br` (stereo unspecified) and `COP(=S)(OC)Oc1ccc(SC)c(C)c1` are within 0.2 log units of each other in log10 biotransformation half-life (days): -0.31 for the first, -0.36 for the second.

Going from `c1ccc(COCc2ccccc2)cc1` to `Cc1ccc(C)c(C(C)c2ccccc2)c1` (stereo unspecified), the log10 biotransformation half-life (days) falls from 0.63 to 0.1.
